The values below come from DBAASP.

Some test systems named below: Klebsiella pneumoniae; Rothia nasimurium; Staphylococcus sciuri; Aerococcus viridans; Pseudomonas aeruginosa; Escherichia coli O111; Salmonella typhimurium; Micrococcus luteus; Trichoderma viride; Ascochyta pisi; Bacillus subtilis; Pediococcus acidilactici; Botrytis cinerea; Escherichia coli 1106; Neurospora crassa; Fusarium oxysporum; Escherichia coli D31; Enterobacter cloacae; Alternaria brassicicola; Fusarium culmorum; Escherichia coli D22; Fusarium haematococcum; Bacillus megaterium; Bacillus cereus AS1.1846.

What all share (assay): ≥ marks a high value that may be exact or a test limit, other limits are often not marked, values filed in µg/mL are converted to µM
Test [1] has as its system Enterococcus faecalis V583.
Test [2] deals with Staphylococcus aureus NCDC 0111.
Test [3] has as its system Escherichia coli MTCC 0723.
The subject of test [4] is Bacillus cereus NCDC 0240.
For test [5], the system named is Staphylococcus aureus ATCC 29213.
Test [6] relates to Acinetobacter johnsonii NCDC 0072.
Test [7] has as its system Pseudomonas aeruginosa ATCC 27853.
Test [8] has as its system Salmonella enterica subsp. enterica serovar Typhimurium ATCC 14028.
Test [9] concerns Pseudomonas aeruginosa NCDC 0105.
The subject of test [10] is Listeria monocytogenes ATCC 19111.
In test [11] the test system is Escherichia coli ATCC 25922.
Test [12] has as its system Pectobacterium carotovorum.
Test [13] has as its system Proteus mirabilis CMCC 49005.
Test [14] has as its system Salmonella enterica subsp. enterica serovar Enteritidis CICC 21527.
Test [15] relates to Bacillus subtilis ATCC 9943.
For test [16], the system named is Salmonella enterica subsp. enterica serovar Paratyphi A CICC 21501.
Test [17] deals with Paenibacillus polymyxa CGMCC 4314.
Test [18] relates to Clostridium perfringens CICC 22949.
Test [19] concerns Bacillus megaterium CICC 10448.
In test [20] the test system is Staphylococcus aureus CMCC 26003.
Test [21] has as its system Clostridium sporogenes CICC 10385.
The test system of test [22] is Geobacillus stearothermophilus CICC 20139.
The subject of test [23] is Alicyclobacillus acidoterrestris CICC 10374.
For test [24], the system named is Salmonella typhimurium CMCC 51005.
The subject of test [25] is Shigella flexneri CMCC 51571.
The test system of test [26] is Clostridioides difficile CICC 22951.
Test [27] has as its system Salmonella enterica subsp. enterica serovar Paratyphi B CICC 21495.
The subject of test [28] is Serratia marcescens CICC 10187.
For test [29], the system named is Micrococcus luteus CMCC 28000.
For test [30], the system named is Pseudomonas fluorescens AS1.1802.
Test [31] relates to Bacillus pumilus CMCC 63202.

Values after ≈ are worked out from the molar mass of the structure shown.

In [1], `CC[C@H](C)[C@H](N)C(=O)N[C@H](C(=O)N[C@@H](CO)C(=O)N[C@@H](CO)C(=O)N[C@@H](CCSC)C(=O)N[C@@H](Cc1ccccc1)C(=O)N[C@H](C(=O)N[C@@H](CO)C(=O)N[C@@H](C)C(=O)O)C(C)C)C(C)C` [IVSSMFVSA] showed an MIC not below 133 µM.
As to `CC[C@H](C)[C@H](NC(=O)[C@H](CO)NC(=O)[C@H](Cc1c[nH]c2ccccc12)NC(=O)[C@@H]1CCCN1C(=O)[C@@H](NC(=O)[C@H](C)N)[C@@H](C)CC)C(=O)N[C@@H](Cc1c[nH]c2ccccc12)C(=O)N[C@@H](Cc1c[nH]c2ccccc12)C(=O)N[C@@H](Cc1cnc[nH]1)C(=O)N[C@@H](CC(C)C)C(=O)N[C@@H](CC(C)C)C(=O)N[C@@H](Cc1ccccc1)C(=O)N[C@@H](CCCCN)C(=O)NCC(=O)O` [AIPWSIWWHLLFKG], the minimal inhibitory concentration (MIC) in test [2] was 12.5 µM (≈ 21.9 µg/mL); in [3], not below 50 µM; in test [4] it was not below 50 µM; in test [5], 0.8 µM (≈ 1.4 µg/mL); in test [6], 25 µM (≈ 43.9 µg/mL); in test [7] it was 200 µM (≈ 351 µg/mL). The MIC in [8] was 3 µM (≈ 5.26 µg/mL); in test [9], not below 200 µM; in test [10], 1.5 µM (≈ 2.63 µg/mL).
With `N[C@@H](CC(=O)O)C(=O)N[C@@H](CCC(=O)O)C(=O)N[C@@H](CC(=O)O)C(=O)N[C@@H](CC(=O)O)C(=O)N[C@@H](CC(=O)O)C(=O)O` [DEDDD], the MIC against Klebsiella pneumoniae was 82.3 µM (≈ 50 µg/mL); in the test on Rothia nasimurium, 16.5 µM (≈ 10 µg/mL); against Staphylococcus sciuri it was not below 82.3 µM; against Aerococcus viridans it was not below 32.9 µM; in the test with Pseudomonas aeruginosa, 82.3 µM (≈ 50 µg/mL); in [11], 82.3 µM (≈ 50 µg/mL). Besides, the MIC in [5] is 16.5 µM (≈ 10 µg/mL); against Escherichia coli O111 it was not below 82.3 µM.
For the compound `CC[C@H](C)[C@H](NC(=O)[C@@H](NC(=O)[C@@H]1CCCN1C(=O)[C@@H](NC(=O)[C@@H]1CCCN1C(=O)[C@@H](N)CCCCN)C(C)C)[C@@H](C)CC)C(=O)N[C@@H](Cc1ccc(O)cc1)C(=O)N[C@H]1CSSC[C@@H](C(=O)N[C@@H](CCC(N)=O)C(=O)N[C@@H](CCCN=C(N)N)C(=O)N[C@@H](CCSC)C(=O)O)NC(=O)[C@H](CCCCN)NC(=O)CNC(=O)[C@H]([C@@H](C)O)NC(=O)[C@H](CCCN=C(N)N)NC(=O)[C@H](CCCN=C(N)N)NC(=O)[C@H](CC(N)=O)NC1=O` [KPVPIIYCNRRTGKCQRM], the MIC was found to be 1.73 µM (≈ 3.74 µg/mL) in the test with Salmonella typhimurium; 1.73 µM (≈ 3.74 µg/mL) against Klebsiella pneumoniae; 28.3 µM (≈ 61.1 µg/mL) in test [12]; 1.73 µM (≈ 3.74 µg/mL) with Micrococcus luteus; 0.849 µM (≈ 1.83 µg/mL) with Aerococcus viridans; 3.54 µM (≈ 7.64 µg/mL) in the test on Trichoderma viride. In addition, the MIC in the test with Ascochyta pisi was 14.1 µM (≈ 30.6 µg/mL); in the test on Bacillus subtilis, 28.3 µM (≈ 61.1 µg/mL); in the test on Pediococcus acidilactici, 28.3 µM (≈ 61.1 µg/mL); in the test with Botrytis cinerea, 1.73 µM (≈ 3.74 µg/mL); against Pseudomonas aeruginosa, 28.3 µM (≈ 61.1 µg/mL); against Escherichia coli 1106, 0.849 µM (≈ 1.83 µg/mL). In addition, the minimum inhibitory concentration (MIC) against Neurospora crassa came out at 3.54 µM (≈ 7.64 µg/mL); with Fusarium oxysporum it was 28.3 µM (≈ 61.1 µg/mL); with Escherichia coli D31, 0.424 µM (≈ 0.917 µg/mL); in the test with Enterobacter cloacae it was 1.73 µM (≈ 3.74 µg/mL); in the test on Alternaria brassicicola, 3.54 µM (≈ 7.64 µg/mL); with Fusarium culmorum, 7.07 µM (≈ 15.3 µg/mL). The MIC came out at 0.424 µM (≈ 0.917 µg/mL) against Escherichia coli D22, 7.07 µM (≈ 15.3 µg/mL) in the test on Fusarium haematococcum and 3.54 µM (≈ 7.64 µg/mL) against Bacillus megaterium.
For `CSCC[C@H](NC(=O)[C@H](CCCCN)NC(=O)[C@H](CCC(N)=O)NC(=O)[C@H](Cc1c[nH]c2ccccc12)NC(=O)[C@@H](N)Cc1ccccc1)C(=O)N[C@@H](CO)C(=O)N[C@@H](Cc1ccccc1)C(=O)N[C@@H](C)C(=O)O` [FWQKMSFA], the minimal inhibitory concentration (MIC) (in test [13]; in test [14]; in [15]; in test [16]; against Bacillus cereus AS1.1846; in [17]) was 15.3 µM (≈ 16 µg/mL) throughout. For the same compound, the MIC in test [18] stood at 30.6 µM (≈ 32 µg/mL); in test [19], 15.3 µM (≈ 16 µg/mL); in test [20], 15.3 µM (≈ 16 µg/mL); in test [21] it was 30.6 µM (≈ 32 µg/mL); in test [22] it was 30.6 µM (≈ 32 µg/mL); in test [11] it was 61.3 µM (≈ 64 µg/mL). The MIC worked out at 15.3 µM (≈ 16 µg/mL) in test [23]; 30.6 µM (≈ 32 µg/mL) in test [24]; 30.6 µM (≈ 32 µg/mL) in test [25]; 30.6 µM (≈ 32 µg/mL) in [26]; 15.3 µM (≈ 16 µg/mL) in test [27]; 15.3 µM (≈ 16 µg/mL) in [28]. Besides, the minimal inhibitory concentration (MIC) in test [29], in test [30] and in test [31] was 15.3 µM (≈ 16 µg/mL) throughout.

In general, MIC refers to the smallest concentration in the dilution series that meets the test's criterion for growth inhibition. Low readings indicate greater potency, high ones weaker potency.
